Laboratory results from ChEMBL document CHEMBL1201862, “PubChem BioAssay data set” (2004).
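Where inhibition never reached the appropriate level, the endpoint shown equals the highest concentration tested. Otherwise, values were interpolated linearly from a five-concentration, 48-hour dose response in 96-well plates. GI50: concentration for 50% inhibition of growth.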 Active and inactive are the calls of the source. Rule as the data show it: active = GI50 up to about 1.1 µM and inactive = higher.

Experiments:
Test in all cases: growth of human tumour cells (NCI), 48 h
NCI-H522 = tested on: NCI-H522
UACC-257 = tested on: UACC-257
NCI-H460 = tested on: NCI-H460
A549 = tested on: A549
PC-3 = tested on: PC-3
DU-145 = tested on: DU-145
U-251 = tested on: U-251
SW-620 = tested on: SW-620
SR = tested on: SR
SK-MEL-28 = tested on: SK-MEL-28
HCT-15 = tested on: HCT-15
KM12 = tested on: KM12
SK-OV-3 = tested on: SK-OV-3
UO-31 = tested on: UO-31
HL-60 = tested on: HL-60
SN12C = tested on: SN12C
MDA-MB-231 = tested on: MDA-MB-231
IGROV-1 = tested on: IGROV-1
A498 = tested on: A498
ACHN = tested on: ACHN
M14 = tested on: M14
OVCAR-3 = tested on: OVCAR-3
Malme-3M = tested on: Malme-3M
K562 = tested on: K562
NCI/ADR-RES = tested on: NCI/ADR-RES
MDA-MB-435 = tested on: MDA-MB-435
NCI-H226 = tested on: NCI-H226
RXF 393 = tested on: RXF 393
HOP-92 = tested on: HOP-92
HCT-116 = tested on: HCT-116
T47D = tested on: T47D
OVCAR-4 = tested on: OVCAR-4
SF-539 = tested on: SF-539
BT-549 = tested on: BT-549
MOLT-4 = tested on: MOLT-4
HOP-62 = tested on: HOP-62
HCC 2998 = tested on: HCC 2998
SNB-75 = tested on: SNB-75
EKVX = tested on: EKVX
TK-10 = tested on: TK-10
CCRF-CEM = tested on: CCRF-CEM
OVCAR-8 = tested on: OVCAR-8
RPMI-8226 = tested on: RPMI-8226
786-0 = tested on: 786-0
LOX IMVI = tested on: LOX IMVI
MCF7 = tested on: MCF7
SF-295 = tested on: SF-295
COLO 205 = tested on: COLO 205
NCI-H23 = tested on: NCI-H23
HT-29 = tested on: HT-29
UACC-62 = tested on: UACC-62
MDA-N = tested on: MDA-N
SF-268 = tested on: SF-268
Hs-578T = tested on: Hs-578T
OVCAR-5 = tested on: OVCAR-5
SNB-19 = tested on: SNB-19
SK-MEL-2 = tested on: SK-MEL-2
SK-MEL-5 = tested on: SK-MEL-5
CAKI-1 = tested on: CAKI-1

CCc1c(N=[N+]=[N-])c2ccccc2oc1=O
GI50 (NCI-H522): > 100 µM (inactive)
GI50 (UACC-257): > 100 µM (inactive)
GI50 (NCI-H460): > 100 µM (inactive)
GI50 (A549): > 100 µM (inactive)
GI50 (PC-3): > 100 µM (inactive)
GI50 (DU-145): > 100 µM (inactive)
GI50 (U-251): > 100 µM (inactive)
GI50 (SW-620): > 100 µM (inactive)
GI50 (SR): > 100 µM (inactive)
GI50 (SK-MEL-28): > 100 µM (inactive)
GI50 (HCT-15): > 100 µM
GI50 (KM12): > 100 µM (inactive)
GI50 (SK-OV-3): > 100 µM (inactive)
GI50 (UO-31): > 100 µM (inactive)
GI50 (HL-60): > 100 µM (inactive)
GI50 (SN12C): > 100 µM (inactive)
GI50 (MDA-MB-231): > 100 µM (inactive)
GI50 (IGROV-1): 49.7 µM (inactive)
GI50 (A498): > 100 µM (inactive)
GI50 (ACHN): > 100 µM (inactive)
GI50 (M14): > 100 µM (inactive)
GI50 (OVCAR-3): > 100 µM (inactive)
GI50 (Malme-3M): > 100 µM (inactive)
GI50 (K562): > 100 µM (inactive)
GI50 (NCI/ADR-RES): > 100 µM (inactive)
GI50 (MDA-MB-435): > 100 µM (inactive)
GI50 (NCI-H226): > 100 µM (inactive)
GI50 (RXF 393): > 100 µM (inactive)
GI50 (HOP-92): > 100 µM (inactive)
GI50 (HCT-116): > 100 µM (inactive)
GI50 (T47D): > 100 µM (inactive)
GI50 (OVCAR-4): > 100 µM (inactive)
GI50 (SF-539): > 100 µM (inactive)
GI50 (BT-549): > 100 µM (inactive)
GI50 (MOLT-4): > 100 µM (inactive)
GI50 (HOP-62): > 100 µM (inactive)
GI50 (HCC 2998): > 100 µM (inactive)
GI50 (SNB-75): 69.3 µM (inactive)
GI50 (EKVX): 36.3 µM (inactive)
GI50 (TK-10): > 100 µM (inactive)
GI50 (CCRF-CEM): > 100 µM (inactive)
GI50 (OVCAR-8): > 100 µM (inactive)
GI50 (RPMI-8226): > 100 µM (inactive)
GI50 (786-0): > 100 µM (inactive)
GI50 (LOX IMVI): > 100 µM (inactive)
GI50 (MCF7): > 100 µM (inactive)
GI50 (SF-295): > 100 µM (inactive)
GI50 (COLO 205): > 100 µM (inactive)
GI50 (NCI-H23): > 100 µM (inactive)
GI50 (HT-29): > 100 µM (inactive)
GI50 (UACC-62): > 100 µM (inactive)
GI50 (MDA-N): > 100 µM (inactive)
GI50 (SF-268): > 100 µM (inactive)
GI50 (Hs-578T): 49.8 µM (inactive)

COC(C(O)CO)C(O)C(O)C(=O)NNc1ccccc1 (stereo not drawn)
GI50 (OVCAR-5): > 100 µM (inactive)
GI50 (NCI-H522): > 100 µM (inactive)
GI50 (UACC-257): > 100 µM (inactive)
GI50 (NCI-H460): 9.46 µM (inactive)
GI50 (A549): > 100 µM (inactive)
GI50 (PC-3): > 100 µM (inactive)
GI50 (DU-145): > 100 µM (inactive)
GI50 (U-251): > 100 µM (inactive)
GI50 (SNB-19): > 100 µM (inactive)
GI50 (SW-620): 8.49 µM (inactive)
GI50 (SR): > 100 µM (inactive)
GI50 (SK-MEL-28): > 100 µM (inactive)
GI50 (HCT-15): > 100 µM
GI50 (KM12): 23.6 µM (inactive)
GI50 (SK-OV-3): > 100 µM (inactive)
GI50 (UO-31): > 100 µM (inactive)
GI50 (HL-60): 6.32 µM (inactive)
GI50 (SN12C): > 100 µM (inactive)
GI50 (MDA-MB-231): > 100 µM (inactive)
GI50 (IGROV-1): 47.4 µM (inactive)
GI50 (A498): > 100 µM (inactive)
GI50 (SK-MEL-2): 38.9 µM (inactive)
GI50 (ACHN): > 100 µM (inactive)
GI50 (M14): 57.7 µM (inactive)
GI50 (OVCAR-3): > 100 µM (inactive)
GI50 (Malme-3M): > 100 µM (inactive)
GI50 (K562): 4.05 µM (inactive)
GI50 (NCI/ADR-RES): 16.5 µM (inactive)
GI50 (MDA-MB-435): 40.3 µM (inactive)
GI50 (RXF 393): > 100 µM (inactive)
GI50 (HOP-92): > 100 µM (inactive)
GI50 (HCT-116): > 100 µM (inactive)
GI50 (T47D): 23.2 µM (inactive)
GI50 (SK-MEL-5): 37.2 µM (inactive)
GI50 (SF-539): 22.4 µM (inactive)
GI50 (CAKI-1): 18.6 µM (inactive)
GI50 (BT-549): > 100 µM (inactive)
GI50 (MOLT-4): > 100 µM (inactive)
GI50 (HOP-62): > 100 µM (inactive)
GI50 (HCC 2998): > 100 µM (inactive)
GI50 (SNB-75): > 100 µM (inactive)
GI50 (EKVX): 21.7 µM (inactive)
GI50 (TK-10): > 100 µM (inactive)
GI50 (CCRF-CEM): 42.7 µM (inactive)
GI50 (OVCAR-8): > 100 µM (inactive)
GI50 (RPMI-8226): 47.5 µM (inactive)
GI50 (786-0): > 100 µM (inactive)
GI50 (LOX IMVI): 2.92 µM (inactive)
GI50 (MCF7): 39.2 µM (inactive)
GI50 (SF-295): 21 µM (inactive)
GI50 (COLO 205): 11.7 µM (inactive)
GI50 (NCI-H23): > 100 µM (inactive)
GI50 (HT-29): > 100 µM (inactive)
GI50 (UACC-62): 5.33 µM (inactive)
GI50 (MDA-N): 20 µM (inactive)
GI50 (SF-268): 23.3 µM (inactive)
GI50 (Hs-578T): > 100 µM (inactive)

Nc1ccccc1/N=C/c1cc2cc([N+](=O)[O-])ccc2s1
GI50 (OVCAR-5): 32.7 µM (inactive)
GI50 (NCI-H522): 15.1 µM (inactive)
GI50 (UACC-257): 19.5 µM (inactive)
GI50 (NCI-H460): 5.58 µM (inactive)
GI50 (A549): 8.47 µM (inactive)
GI50 (PC-3): 14.2 µM (inactive)
GI50 (DU-145): 12.6 µM (inactive)
GI50 (U-251): 14.5 µM (inactive)
GI50 (SNB-19): 14.1 µM (inactive)
GI50 (SW-620): 29.5 µM (inactive)
GI50 (SR): 11 µM (inactive)
GI50 (SK-MEL-28): 22 µM (inactive)
GI50 (HCT-15): 43.3 µM
GI50 (KM12): 10 µM (inactive)
GI50 (SK-OV-3): 13.9 µM (inactive)
GI50 (UO-31): 15.7 µM (inactive)
GI50 (HL-60): 7.43 µM (inactive)
GI50 (SN12C): 23.8 µM (inactive)
GI50 (MDA-MB-231): 16.3 µM (inactive)
GI50 (IGROV-1): 7.59 µM (inactive)
GI50 (A498): 10.4 µM (inactive)
GI50 (SK-MEL-2): 12.7 µM (inactive)
GI50 (ACHN): 11.6 µM (inactive)
GI50 (M14): 22.4 µM (inactive)
GI50 (OVCAR-3): 14 µM (inactive)
GI50 (Malme-3M): 26.6 µM (inactive)
GI50 (K562): 12.7 µM (inactive)
GI50 (NCI/ADR-RES): 32.1 µM (inactive)
GI50 (MDA-MB-435): 31.4 µM (inactive)
GI50 (RXF 393): 14.5 µM (inactive)
GI50 (HOP-92): 18.9 µM (inactive)
GI50 (HCT-116): 24.9 µM (inactive)
GI50 (T47D): 4.13 µM (inactive)
GI50 (SK-MEL-5): 21.4 µM (inactive)
GI50 (SF-539): 12.1 µM (inactive)
GI50 (CAKI-1): 15.5 µM (inactive)
GI50 (BT-549): 12.5 µM (inactive)
GI50 (MOLT-4): 3.08 µM (inactive)
GI50 (HOP-62): 16.8 µM (inactive)
GI50 (HCC 2998): 19.3 µM (inactive)
GI50 (SNB-75): 14.4 µM (inactive)
GI50 (EKVX): 18.6 µM (inactive)
GI50 (TK-10): 15.2 µM (inactive)
GI50 (CCRF-CEM): 5.01 µM (inactive)
GI50 (OVCAR-8): 15 µM (inactive)
GI50 (RPMI-8226): 5.52 µM (inactive)
GI50 (786-0): 14.5 µM (inactive)
GI50 (LOX IMVI): 13.9 µM (inactive)
GI50 (MCF7): 5.27 µM (inactive)
GI50 (SF-295): 21.9 µM (inactive)
GI50 (COLO 205): 17.8 µM (inactive)
GI50 (NCI-H23): 33 µM (inactive)
GI50 (HT-29): 25.8 µM (inactive)
GI50 (UACC-62): 12.6 µM (inactive)
GI50 (MDA-N): 37.8 µM (inactive)
GI50 (SF-268): 14.6 µM (inactive)
GI50 (Hs-578T): 15.1 µM (inactive)
